# Experimental data published in US8741834B2, “Dipeptoid prodrugs and the use thereof” (Bayer Intellectual Property GmbH, priority 2008, dated 2014).
# Where a name gives a salt, the structure may show the parent alone.
# Tests used:
# [1] = Determination of the solubility in 5% strength aqueous dextrose solution; assay type: physicochemical; conditions: saline or isotonic, thermodynamic from solid, room temperature
# Procedure: The test substance is suspended in 5% strength aqueous dextrose solution. This suspension is shaken at room temperature for 24 h. After ultracentrifugation at 224 000 g for 30 min, the supernatant is diluted with DMSO and analysed by HPLC. A two-point calibration plot of the test compound in DMSO is used for quantification.
# Agilent 1100 with DAD (G1315A), quat. Pump (G1311A), autosampler CTC HTS PAL, degasser (G1322A) and column thermostat (G1316A); column: Phenomenex Gemini C18, 5 μm, 50 mm×2 mm; temperature: 40° C.; eluent A: water/phosphoric acid pH 2, eluent B: acetonitrile; flow rate: 0.7 ml/min; gradient: 0-0.5 min 85% A, 15% B; ramp 0.5-3 min 10% A, 90% B; 3-3.5 min 10% A, 90% B; ramp 3.5-4 min 85% A, 15% B; 4-5 min 85% A, 15% B.
# Agilent 1100 with DAD (G1315A), quat. pump (G1311A), autosampler CTC HTS PAL, degasser (G1322A) and column thermostat (G1316A); column: VDSoptilab Kromasil 100 C18, 3.5 μm, 60 mm×2.1 mm; temperature: 30° C.; eluent A: water+5 ml of perchloric acid/liter, eluent B: acetonitrile; flow rate: 0.75 ml/min; gradient: 0-0.5 min 98% A, 2% B; ramp 0.5-4.5 min 10% A, 90% B; 4.5-6 min 10% A, 90% B; ramp 6.5-6.7 min 98% A, 2% B; 6.7-7.5 min 98% A, 2% B.
# [2] = Stability in buffer at various pH values; assay type: physicochemical
# Procedure: 0.3 mg of the test substance is weighed into a 2 ml HPLC vial and 0.5 ml of acetonitrile or acetonitrile/DMSO (9:1) is added. The substance is dissolved by putting the sample vessel in an ultrasonic bath for about 10 seconds. Then 0.5 ml of the respective buffer solution is added, and the sample is again treated in the ultrasonic bath.
# pH 2: 0.03 mol of citric acid, 0.061 mol of sodium chloride and 0.0082 mol of hydrochoric acid ad 1 liter of water;
# pH 4: 1 liter of Millipore water is adjusted to pH 4.0 with 1 N hydrochloric acid;
# pH 5: 0.096 mol of citric acid and 0.2 mol of sodium hydroxide ad 1 liter of water;
# pH 6: 0.06 mol of citric acid and 0.16 mol of sodium hydroxide ad 1 liter of water;
# pH 7.4: 90.0 g of sodium chloride, 13.61 g of potassium dihydrogen phosphate and 83.35 g of 1 N sodium hydroxide solution are made up to 1 liter with water; this solution is then further diluted 1:10 with Millipore water.
# pH 8: 0.013 mol of borax and 0.021 mol of hydrochloric acid ad 1 liter of water.
# 5 μl portions of the test solution are analyzed by HPLC for their content of unchanged test substance, and of active substance (A) formed, every hour over a period of 24 hours at 37° C. The percentage areas of the appropriate peaks are used for quantification.
# The ratios of the peak areas (F) at the respective time points in relation to the peak areas at the starting time are shown in Table 2 for representative exemplary embodiments: […]
SMILES,solubility thermodynamic at 24 h [1] [µg/mL],"% test substance after 4 h [F(t = 4 h) × 100/F(t = 0 h)] ([2]; pH 4, 37° C.) [%]","% test substance after 24 h [F(t = 24 h) × 100/F(t = 0 h)] ([2]; pH 4, 37° C.) [%]","% test substance after 4 h [F(t = 4 h) × 100/F(t = 0 h)] ([2]; pH 7.4, 37° C.) [%]","% test substance after 24 h [F(t = 24 h) × 100/F(t = 0 h)] ([2]; pH 7.4, 37° C.) [%]","% test substance after 4 h [F(t = 4 h) × 100/F(t = 0 h)] ([2]; pH 5, 37° C.) [%]","% test substance after 24 h [F(t = 24 h) × 100/F(t = 0 h)] ([2]; pH 5, 37° C.) [%]"
"C[C@H](NC(=O)[C@@H](N)CCN)C(=O)OC[C@H](COc1ccc(-c2c(C#N)c(N)nc(SCc3coc(-c4ccc(Cl)cc4)n3)c2C#N)cc1)OC(=O)[C@H](C)NC(=O)[C@@H](N)CCN [Example 3, (2S)-3-{4-[2-Amino-6-({[2-(4-chlorophenyl)-1,3-oxazol-4-yl]methyl}sulfanyl)-3,5-dicyanopyridin-4-yl]phenoxy}propane-1,2-diyl (2S,2′S)-bis(2-{[(2S)-2,4-diaminobutanoyl]amino}propanoate)tetrahydrochloride]",590,–,–,–,–,–,–
"C[C@H](NC(=O)[C@@H](N)CCCN)C(=O)OC[C@H](COc1ccc(-c2c(C#N)c(N)nc(SCc3coc(-c4ccc(Cl)cc4)n3)c2C#N)cc1)OC(=O)[C@H](C)NC(=O)[C@@H](N)CCCN [Example 4, (2S)-3-{4-[2-Amino-6-({[2-(4-chlorophenyl)-1,3-oxazol-4-yl]methyl}sulfanyl)-3,5-dicyanopyridin-4-yl]phenoxy}propane-1,2-diyl (2S,2′S)-bis(2-{[(2S)-2,5-diaminopentanoyl]amino}propanoate)tetrahydrochloride]",860,–,–,–,–,–,–
"C[C@H](NC(=O)C[C@H](N)C(=O)O)C(=O)OC[C@H](COc1ccc(-c2c(C#N)c(N)nc(SCc3coc(-c4ccc(Cl)cc4)n3)c2C#N)cc1)OC(=O)[C@H](C)NC(=O)C[C@H](N)C(=O)O [Example 14, (2S,6S,9S,13S,17S)-2,17-Diamino-9-({4-[2-amino-6-({[2-(4-chlorophenyl)-1,3-oxazol-4-yl]methyl}sulfanyl)-3,5-dicyanopyridin-4-yl]phenoxy}methyl)-6,13-dimethyl-4,7,12,15-tetraoxo-8,11-dioxa-5,14-diazaoctadecane-1,18-dioic acid bis(trifluoroacetic acid) salt]",–,96,95,100,91,–,–
"CC(C)[C@H](N)C(=O)N[C@@H](C)C(=O)OC[C@H](COc1ccc(-c2c(C#N)c(N)nc(SCc3coc(-c4ccc(Cl)cc4)n3)c2C#N)cc1)OC(=O)[C@H](C)NC(=O)[C@@H](N)C(C)C [Example 26, (2S)-3-{4-[2-Amino-6-({[2-(4-chlorophenyl)-1,3-oxazol-4-yl]methyl}sulfanyl)-3,5-dicyanopyridin-4-yl]phenoxy}propane-1,2-diyl (2S,2′S)-bis(2-{[(2S)-2-amino-3-methylbutanoyl]amino}propanoate)dihydrochloride]",–,100,99,84,34,97,92
"CC(C)[C@H](NC(=O)[C@H](C)N)C(=O)OC[C@H](COc1ccc(-c2c(C#N)c(N)nc(SCc3coc(-c4ccc(Cl)cc4)n3)c2C#N)cc1)OC(=O)[C@@H](NC(=O)[C@H](C)N)C(C)C [Example 28, (2S)-3-{4-[2-Amino-6-({[2-(4-chlorophenyl)-1,3-oxazol-4-yl]methyl}sulfanyl)-3,5-dicyanopyridin-4-yl]phenoxy}propane-1,2-diyl(2S,2′S)-bis(2-{[(2S)-2-aminopropanoyl]amino}-3-methylbutanoate)dihydrochloride]",–,100,99,99,88,–,–
"C[C@H](N)C(=O)NCCC(=O)OC[C@H](COc1ccc(-c2c(C#N)c(N)nc(SCc3coc(-c4ccc(Cl)cc4)n3)c2C#N)cc1)OC(=O)CCNC(=O)[C@H](C)N [Example 31, (2S)-3-{4-[2-Amino-6-({[2-(4-chlorophenyl)-1,3-oxazol-4-yl]methyl}sulfanyl)-3,5-dicyanopyridin-4-yl]phenoxy}propane-1,2-diyl bis(3-{[(2S)-2-aminopropanoyl)amino}propanoate)dihydrochloride]",220,–,–,–,–,–,–
"C[C@H](NC(=O)[C@@H](N)CCCCN)C(=O)OC[C@@H](COc1ccc(-c2c(C#N)c(N)nc(SCc3coc(-c4ccc(Cl)cc4)n3)c2C#N)cc1)OC(=O)[C@H](C)NC(=O)[C@@H](N)CCCCN [Example 34, (2R)-3-{4-[2-Amino-6-({[2-(4-chlorophenyl)-1,3-oxazol-4-yl]methyl}sulfanyl)-3,5-dicyanopyridin-4-yl]phenoxy}propane-1,2-diyl(2S,2′S)-bis(2-{[(2S)-2,6-diaminohexanoyl]amino}propanoate)tetrahydrochloride]",–,100,99,0,0,–,–
"C[C@H](NC(=O)[C@@H](N)CCCCN)C(=O)OC[C@H](COc1ccc(-c2c(C#N)c(N)nc(SCc3coc(-c4ccc(Cl)cc4)n3)c2C#N)cc1)OC(=O)[C@H](C)NC(=O)[C@@H](N)CCCCN [Example 35, (2S)-3-{4-[2-Amino-6-({[2-(4-chlorophenyl)-1,3-oxazol-4-yl]methyl}sulfanyl)-3,5-dicyanopyridin-4-yl]phenoxy}propane-1,2-diyl(2S,2′S)-bis(2-{[(2S)-2,6-diaminohexanoyl)amino}propanoate)tetrahydrochloride]",610,98,94,2,0,–,–
"C[C@@H](O)[C@H](NC(=O)CN)C(=O)OC[C@H](COc1ccc(-c2c(C#N)c(N)nc(SCc3coc(-c4ccc(Cl)cc4)n3)c2C#N)cc1)OC(=O)[C@@H](NC(=O)CN)[C@@H](C)O [Example 36, (2S)-3-{4-[2-Amino-6-({[2-(4-chlorophenyl)-1,3-oxazol-4-yl]methyl}sulfanyl)-3,5-dicyanopyridin-4-yl]phenoxy}propane-1,2-diyl (2S,3R,2′S,3′R)-bis{2-[(aminoacetyl)amino]-3-hydroxybutanoate}bis(trifluoroacetic acid) salt]",700,–,–,–,–,–,–
"C[C@H](N)C(=O)N[C@H](C(=O)OC[C@H](COc1ccc(-c2c(C#N)c(N)nc(SCc3coc(-c4ccc(Cl)cc4)n3)c2C#N)cc1)OC(=O)[C@@H](NC(=O)[C@H](C)N)[C@@H](C)O)[C@@H](C)O [Example 38, (2S)-3-{4-[2-Amino-6-({[2-(4-chlorophenyl)-1,3-oxazol-4-yl]methyl}sulfanyl)-3,5-dicyanopyridin-4-yl]phenoxy}propane-1,2-diyl (2S,3R,2′S,3′R)-bis(2-{[(2S)-2-aminopropanoyl]amino}-3-hydroxybutanoate)bis(trifluoroacetic acid) salt]",750,–,–,–,–,–,–
"C[C@@H](O)[C@H](N)C(=O)NCCC(=O)OC[C@H](COc1ccc(-c2c(C#N)c(N)nc(SCc3coc(-c4ccc(Cl)cc4)n3)c2C#N)cc1)OC(=O)CCNC(=O)[C@@H](N)[C@@H](C)O [Example 39, (2S)-3-{4-[2-Amino-6-({[2-(4-chlorophenyl)-1,3-oxazol-4-yl]methyl}sulfanyl)-3,5-dicyanopyridin-4-yl]phenoxy}propane-1,2-diyl bis(3-{[(2S,3R)-2-amino-3-hydroxybutanoyl]amino}propanoate)bis(trifluoroacetic acid) salt]",490,–,–,–,–,–,–
